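GI50: concentration for 50% inhibition of growth. The concentration for full growth arrest is given as TGI.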
What was measured:
Test in all cases: NCI tumour cell line growth inhibition, 384-well format
A498 renal = system: A498 renal
A549 NSCLC = system: A549 NSCLC
ACHN renal = system: ACHN renal
BT-549 breast = system: BT-549 breast
CAKI-1 renal = system: CAKI-1 renal
COLO 205 colon = system: COLO 205 colon
DU-145 prostate = system: DU-145 prostate
EKVX NSCLC = system: EKVX NSCLC
HCC-2998 colon = system: HCC-2998 colon
HCT-116 colon = system: HCT-116 colon
HCT-15 colon = system: HCT-15 colon
HL-60(TB) leukemia = system: HL-60(TB) leukemia
HOP-62 NSCLC = system: HOP-62 NSCLC
HOP-92 NSCLC = system: HOP-92 NSCLC
HS 578T breast = system: HS 578T breast
HT29 colon = system: HT29 colon
IGROV1 ovarian = system: IGROV1 ovarian
KM12 colon = system: KM12 colon
LOX IMVI melanoma = system: LOX IMVI melanoma
M14 melanoma = system: M14 melanoma
MALME-3M melanoma = system: MALME-3M melanoma
MCF7 breast = system: MCF7 breast
MDA-MB-231 breast = system: MDA-MB-231 breast
MDA-MB-435 melanoma = system: MDA-MB-435 melanoma
MDA-MB-468 breast = system: MDA-MB-468 breast
MOLT-4 leukemia = system: MOLT-4 leukemia
NCI-H23 lung = system: NCI-H23 lung
NCI-H322M lung = system: NCI-H322M lung
NCI-H460 NSCLC = system: NCI-H460 NSCLC
NCI-H522 lung = system: NCI-H522 lung
NCI/ADR-RES ovarian = system: NCI/ADR-RES ovarian
OVCAR-3 ovarian = system: OVCAR-3 ovarian
OVCAR-4 ovarian = system: OVCAR-4 ovarian
OVCAR-5 ovarian = system: OVCAR-5 ovarian
OVCAR-8 ovarian = system: OVCAR-8 ovarian
PC-3 prostate = system: PC-3 prostate
RPMI-8226 leukemia = system: RPMI-8226 leukemia
RXF 393 renal = system: RXF 393 renal
SF-268 CNS = system: SF-268 CNS
SF-295 CNS = system: SF-295 CNS
SF-539 CNS = system: SF-539 CNS
SK-MEL-28 melanoma = system: SK-MEL-28 melanoma
SK-MEL-5 melanoma = system: SK-MEL-5 melanoma
SK-OV-3 ovarian = system: SK-OV-3 ovarian
SN12C renal = system: SN12C renal
SNB-19 CNS = system: SNB-19 CNS
SNB-75 CNS = system: SNB-75 CNS
SR leukemia = system: SR leukemia
T-47D breast = system: T-47D breast
TK-10 renal = system: TK-10 renal
U251 glioblastoma = system: U251 glioblastoma
UACC-257 melanoma = system: UACC-257 melanoma
UACC-62 melanoma = system: UACC-62 melanoma

## Nc1ccc(-c2ccc3ncc4ccc(=O)n(-c5cccc(C(F)(F)F)c5)c4c3c2)cn1
A498 renal
  GI50: < 0.01 µM
  TGI: 0.0132 µM
A549 NSCLC
  GI50: < 0.01 µM
  TGI: 1.07 µM
ACHN renal
  GI50: < 0.01 µM
  TGI: 0.168 µM
BT-549 breast
  GI50: < 0.01 µM
  TGI: 0.0358 µM
CAKI-1 renal
  GI50: 0.0105 µM
  TGI: 1.08 µM
COLO 205 colon
  GI50: 0.0205 µM
  TGI: 0.103 µM
DU-145 prostate
  GI50: < 0.01 µM
  TGI: 0.378 µM
EKVX NSCLC
  GI50: < 0.01 µM
  TGI: 0.0629 µM
HCC-2998 colon
  GI50: 0.0105 µM
  TGI: 0.318 µM
HCT-116 colon
  GI50: 0.0255 µM
  TGI: 0.242 µM
HCT-15 colon
  GI50: < 0.01 µM
  TGI: 1.08 µM
HL-60(TB) leukemia
  GI50: 0.0179 µM
  TGI: 0.128 µM
HOP-62 NSCLC
  GI50: < 0.01 µM
  TGI: 0.0463 µM
HOP-92 NSCLC
  GI50: 0.0261 µM
  TGI: 1 µM
HS 578T breast
  GI50: < 0.01 µM
  TGI: 0.0508 µM
HT29 colon
  GI50: 0.0456 µM
  TGI: 1.32 µM
IGROV1 ovarian
  GI50: < 0.01 µM
  TGI: < 0.01 µM
KM12 colon
  GI50: < 0.01 µM
  TGI: 2.47 µM
LOX IMVI melanoma
  GI50: < 0.01 µM
  TGI: 0.0334 µM
M14 melanoma
  GI50: < 0.01 µM
  TGI: 0.136 µM
MALME-3M melanoma
  GI50: < 0.01 µM
  TGI: 0.151 µM
MCF7 breast
  GI50: < 0.01 µM
  TGI: 2.74 µM
MDA-MB-231 breast
  GI50: < 0.01 µM
  TGI: 12.5 µM
MDA-MB-435 melanoma
  GI50: 0.0102 µM
  TGI: 0.0914 µM
MDA-MB-468 breast
  GI50: < 0.01 µM
  TGI: 0.171 µM
MOLT-4 leukemia
  GI50: < 0.01 µM
  TGI: 0.0285 µM
NCI-H23 lung
  GI50: 0.0232 µM
  TGI: 0.4 µM
NCI-H322M lung
  GI50: < 0.01 µM
  TGI: 0.0469 µM
NCI-H460 NSCLC
  GI50: < 0.01 µM
  TGI: 0.071 µM
NCI-H522 lung
  GI50: < 0.01 µM
  TGI: 0.168 µM
NCI/ADR-RES ovarian
  GI50: 0.0261 µM
  TGI: 1.07 µM
OVCAR-3 ovarian
  GI50: < 0.01 µM
  TGI: 0.293 µM
OVCAR-4 ovarian
  GI50: < 0.01 µM
  TGI: 0.0389 µM
OVCAR-5 ovarian
  GI50: 0.0134 µM
  TGI: 0.0673 µM
OVCAR-8 ovarian
  GI50: 0.0114 µM
  TGI: 1.37 µM
PC-3 prostate
  GI50: < 0.01 µM
  TGI: 0.122 µM
RPMI-8226 leukemia
  GI50: < 0.01 µM
  TGI: < 0.01 µM
RXF 393 renal
  GI50: 0.0175 µM
  TGI: 1.4 µM
SF-268 CNS
  GI50: 0.0345 µM
  TGI: 1.14 µM
SF-295 CNS
  GI50: < 0.01 µM
  TGI: 0.196 µM
SF-539 CNS
  GI50: < 0.01 µM
  TGI: 0.389 µM
SK-MEL-28 melanoma
  GI50: 0.026 µM
  TGI: 14.2 µM
SK-MEL-5 melanoma
  GI50: < 0.01 µM
  TGI: 0.0245 µM
SK-OV-3 ovarian
  GI50: < 0.01 µM
  TGI: 1.02 µM
SN12C renal
  GI50: < 0.01 µM
  TGI: 0.086 µM
SNB-19 CNS
  GI50: 0.0523 µM
  TGI: 2.38 µM
SNB-75 CNS
  GI50: < 0.01 µM
  TGI: 1.15 µM
SR leukemia
  GI50: < 0.01 µM
  TGI: < 0.01 µM
T-47D breast
  GI50: < 0.01 µM
  TGI: 1.31 µM
TK-10 renal
  GI50: < 0.01 µM
  TGI: 0.0402 µM
U251 glioblastoma
  GI50: 0.0301 µM
  TGI: 1.19 µM
UACC-257 melanoma
  GI50: 0.0255 µM
  TGI: 0.199 µM
UACC-62 melanoma
  GI50: < 0.01 µM
  TGI: 0.565 µM

— PubChem BioAssay (NCI)
